Measurements reported in US10023565B2, “N,N′ substituted piperidinamine compounds, and preparation method and usage thereof” (Institute of Pharmacology and Toxicology Academy of …, priority 2013, dated 2018).

Experiments:
Format in all cases: cell-based
[1] = tested on: six human breast cancer cell strains; assay: Antitumor activity evaluation, statements on the whole panel; settings: compound alone
From the text: In antitumor activity evaluation, six human breast cancer cell strains are selected, including BT474, SK-BR3 which are human breast cancer cell strains sensitive to lapatinib, BT/Lap^R1.0, SK/Lap^R1.0 which are human breast cancer cell strains with secondary resistance to lapatinib, MDA-MB-361, MDA-MB-453 which are human breast cancer cell strains with natural resistance tolapatinib.
Antitumor bioactivity evaluation of the compounds of Examples according to the method described below
(§1) Cells plating: a 100 mm culture dish with overgrown adherent cells was digested with 1 ml 0.25% trypsin (GIBCO) at 37° C. for 5 min, and the reaction was terminated with 2 ml culture medium (containing 10% FBS, GIBCO). The cells were scattered and collected, after counting, diluted to 1×10^5 cells/ml, and seeded into a 96-well plate at 50 μl/well, 5000 cells/well, excluding the peripheral circle of wells in which no cell was added, but PBS was added, 60 wells in total, and then incubated at 37° C. for 24 hours for adhering.
Addition of the compound and lapatinib: the test sample was diluted to a final concentration of 5 μM, and the culture medium with the corresponding compound solvent concentration was filled in the control well, the compound solvent concentration was kept consistent in each well, 5 parellel wells were set for each concentration, 25 μl each well, 25 μl culture medium (in combined group, 25 μl lapatinib was added till a final concentration of 1 μM) supplemented, followed by incubation at 37° C. for 72 hours.
(§2) Test after incubation at 37° C. for 72 hours: 50 μL of ATPlite kit substrate solution was added in each well, and vibrated for 3 min, followed by placing aside in darkness for 10 min, and then supernatant 100 μl/well was taken and placed on aluminescence test plate; the luminescence test plate that has been fully incubated was placed in a luminescence test instrument, to read luminescence value.
1. Cell survival rate (%)=Experimental group RLU/control group RLU×100%. The experimental data were subjected to data analysis and processing by utilizing GraphPad software.

[2] = tested on: A549; assay: Extended test against tumor cell lines (ATPlite); settings: A549 (lung cancer), 72 hours
Method: (§3) The compounds of Examples 36/37/40/47/49 were used to carry out extended test against tumor cell lines, wherein 12 kinds of cells were selected, including liver cancer cells, gastric cancer cells, pancreatic cancer cells, colorectal cancer cells, lung cancer cells and normal cells, which were shown in Table 12:
as §1, with “A” for “Cells plating: a”, “54” for “60”
(§4) The test sample was diluted to final concentration of 4, 1, 0.25, 0.063, 0.016 μM, culture medium was filled in control well, 3 parellel wells were set for each concentration, 50 μl each well, followed by incubation at 37° C. for 72 hours.
as §2, with “3) Test” for “Test”, “kitsubstrate” for “kit substrate”, “a luminescence” for “aluminescence”
(§5) Cell survival rate (%)=Experimental group RLU/control group RLU×100%. The experimental data were subjected to data analysis and processing by utilizing GraphPad software.

[3] = tested on: AsPC-1; assay: Extended test against tumor cell lines (ATPlite); settings: AsPC-1 (pancreatic cancer), 72 hours
Method: as §3
as §1, with “A” for “Cells plating: a”, “54” for “60”
as §4
as §2, with “3) Test” for “Test”, “kitsubstrate” for “kit substrate”, “a luminescence” for “aluminescence”
as §5

[4] = tested on: BGC823; assay: Extended test against tumor cell lines (ATPlite); settings: BGC823 (gastric cancer), 72 hours
Method: as §3
as §1, with “A” for “Cells plating: a”, “54” for “60”
as §4
as §2, with “3) Test” for “Test”, “kitsubstrate” for “kit substrate”, “a luminescence” for “aluminescence”
as §5

[5] = tested on: H460; assay: Extended test against tumor cell lines (ATPlite); settings: H460 (lung cancer), 72 hours
Method: as §3
as §1, with “A” for “Cells plating: a”, “54” for “60”
as §4
as §2, with “3) Test” for “Test”, “kitsubstrate” for “kit substrate”, “a luminescence” for “aluminescence”
as §5

[6] = tested on: HT-29; assay: Extended test against tumor cell lines (ATPlite); settings: HT-29 (colorectal cancer), 72 hours
Method: as §3
as §1, with “A” for “Cells plating: a”, “54” for “60”
as §4
as §2, with “3) Test” for “Test”, “kitsubstrate” for “kit substrate”, “a luminescence” for “aluminescence”
as §5

[7] = tested on: HepG2; assay: Extended test against tumor cell lines (ATPlite); settings: HepG2 (liver cancer), 72 hours
Method: as §3
as §1, with “A” for “Cells plating: a”, “54” for “60”
as §4
as §2, with “3) Test” for “Test”, “kitsubstrate” for “kit substrate”, “a luminescence” for “aluminescence”
as §5

[8] = tested on: Huh-7; assay: Extended test against tumor cell lines (ATPlite); settings: Huh-7 (liver cancer), 72 hours
Method: as §3
as §1, with “A” for “Cells plating: a”, “54” for “60”
as §4
as §2, with “3) Test” for “Test”, “kitsubstrate” for “kit substrate”, “a luminescence” for “aluminescence”
as §5

[9] = tested on: MIA-PaCa-2; assay: Extended test against tumor cell lines (ATPlite); settings: MIA-PaCa-2 (pancreatic cancer), 72 hours
Method: as §3
as §1, with “A” for “Cells plating: a”, “54” for “60”
as §4
as §2, with “3) Test” for “Test”, “kitsubstrate” for “kit substrate”, “a luminescence” for “aluminescence”
as §5

[10] = tested on: MRC5 (lung epithelial fibroblast); assay: Extended test against tumor cell lines (ATPlite); settings: MRC5 (normal cells), 72 hours
Method: as §3
as §1, with “A” for “Cells plating: a”, “54” for “60”
as §4
as §2, with “3) Test” for “Test”, “kitsubstrate” for “kit substrate”, “a luminescence” for “aluminescence”
as §5

[11] = tested on: N87; assay: Extended test against tumor cell lines (ATPlite); settings: N87 (gastric cancer), 72 hours
Method: as §3
as §1, with “A” for “Cells plating: a”, “54” for “60”
as §4
as §2, with “3) Test” for “Test”, “kitsubstrate” for “kit substrate”, “a luminescence” for “aluminescence”
as §5

[12] = tested on: WI-38 (human embryonic lung fibroblast); assay: Extended test against tumor cell lines (ATPlite); settings: WI-38 (normal cells), 72 hours
Method: as §3
as §1, with “A” for “Cells plating: a”, “54” for “60”
as §4
as §2, with “3) Test” for “Test”, “kitsubstrate” for “kit substrate”, “a luminescence” for “aluminescence”
as §5

In the case of CSc1nccc(N2CCC(N(C)Cc3ccccc3Cl)CC2)n1 [Example 47, N-methyl-N-(2-chlorobenzyl)-N-[1-(2-methylthiopyrimidin-4-yl)piperidin-4-yl]amine], the “growth inhibition to the six human breast cancer cell strains” value [1] is reported as “relatively significant growth inhibition”, the Survival rate ([2]; 0.016 μM) is reported as 98.1% and the Survival rate ([2]; 0.063 μM) is reported as 95.3%. The Survival rate ([2]; 0.25 μM) was 93%, the Survival rate ([2]; 1 μM) was 88.7% and the Survival rate ([2]; 4 μM) was 45.9%. It also gave a Survival rate ([3]; 0.016 μM) of 100.2%, a Survival rate ([3]; 0.063 μM) of 94.7% and a Survival rate ([3]; 0.25 μM) of 92.8%. The Survival rate ([3]; 1 μM) was 85.3%, the Survival rate ([3]; 4 μM) was 53.6% and the Survival rate ([4]; 0.016 μM) was 99.8%. The Survival rate ([4]; 0.063 μM) was 100.6%, the Survival rate ([4]; 0.25 μM) was 98.4% and the Survival rate ([4]; 1 μM) was 84.3%. The Survival rate ([4]; 4 μM) was 24.5%, the Survival rate ([5]; 0.016 μM) was 99% and the Survival rate ([5]; 0.063 μM) was 99.8%. For the same compound, the Survival rate ([5]; 0.25 μM) was 99.3%, the Survival rate ([5]; 1 μM) was 90.6% and the Survival rate ([5]; 4 μM) was 33.8%. For the same compound, the Survival rate ([6]; 0.016 μM) was 102.8%, the Survival rate ([6]; 0.063 μM) was 102.1% and the Survival rate ([6]; 0.25 μM) was 101.6%. For the same compound, the Survival rate ([6]; 1 μM) was 93.1%, the Survival rate ([6]; 4 μM) was 48.8% and the Survival rate ([7]; 0.016 μM) was 103.1%. It also gave a Survival rate ([7]; 0.063 μM) of 102.7%, a Survival rate ([7]; 0.25 μM) of 96% and a Survival rate ([7]; 1 μM) of 71.4%. It also gave a Survival rate ([7]; 4 μM) of 7.3%, a Survival rate ([8]; 0.016 μM) of 91.1% and a Survival rate ([8]; 0.063 μM) of 88.3%. The Survival rate ([8]; 0.25 μM) was 81.4%, the Survival rate ([8]; 1 μM) was 65.9% and the Survival rate ([8]; 4 μM) was 16.7%. The Survival rate ([9]; 0.016 μM) was 98.5%, the Survival rate ([9]; 0.063 μM) was 99.3% and the Survival rate ([9]; 0.25 μM) was 97.4%. The Survival rate ([9]; 1 μM) was 88.5%, the Survival rate ([9]; 4 μM) was 24.5% and the Survival rate ([10]; 0.016 μM) was 97.3%. For the same compound, the Survival rate ([10]; 0.063 μM) was 99.5%, the Survival rate ([10]; 0.25 μM) was 100.3% and the Survival rate ([10]; 1 μM) was 92.6%. The Survival rate ([10]; 4 μM) was 74.8%, the Survival rate ([11]; 0.016 μM) was 89.6% and the Survival rate ([11]; 0.063 μM) was 91.3%. It also gave a Survival rate ([11]; 0.25 μM) of 87.8%, a Survival rate ([11]; 1 μM) of 68.6% and a Survival rate ([11]; 4 μM) of 34.8%. For the same compound, the Survival rate ([12]; 0.016 μM) was 102.1%, the Survival rate ([12]; 0.063 μM) was 99.7% and the Survival rate ([12]; 0.25 μM) was 100.4%. It also gave a Survival rate ([12]; 1 μM) of 95.1% and a Survival rate ([12]; 4 μM) of 82.1%.
